Results on 29 molecules are retold here after US20240400555A1 (Initial Therapeutics, Inc., priority 2023, published 2024).

The first assay concerns MV-4-11 cells. Nature of the assay: Cell Viability Assay in MV-4-11 Cells. Particulars: Homo sapiens, MV4-11, 72 h. The class given is cell-based. Put shortly:
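Luminescent ATP read-out (CellTiter-Glo) after 72 h compound treatment of MV-4-11 leukaemia cells (7,000 per well, IMDM plus 10% FBS). Values expressed relative to DMSO control and derived by four-parameter non-linear regression.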
Broadly, the IC50 is the concentration needed to halve the response being measured. As to `Cc1cccc2ccnc(N(C(=O)c3ccc(C#CC(C)(C)O)cc3F)[C@@H]3CCCNC3)c12` [Example 592, (R)-2-fluoro-4-(3-hydroxy-3-methylbut-1-yn-1-yl)-N-(8-methylisoquinolin-1-yl)-N-(piperidin-3-yl)benzamide], the midpoint of inhibition, the IC50, lay at 360 nM.

The same assay, now with this note: Homo sapiens, MV4-11, 72 h, MV-4-11 cells, 72 h, Cell-Titer Glo; read-out: IC50.
On to `Cc1cnc(-c2ccc3c(N(C(=O)c4ccc(-n5nnc6cccnc65)cc4F)[C@@H]4CCCNC4)nccc3c2)s1` [Example 574, (R)-4-(3H-[1,2,3]triazolo[4,5-b]pyridin-3-yl)-2-fluoro-N-(6-(5-methylthiazol-2-yl)isoquinolin-1-yl)-N-(piperidin-3-yl)benzamide], for which the IC50 stood at 390 nM.
For the molecule `Cc1nc(-c2ccc3c(N(C(=O)c4ccc(-n5nnc6cccnc65)cc4F)[C@@H]4CCCNC4)nccc3c2)cs1` [Example 575, (R)-4-(3H-[1,2,3]triazolo[4,5-b]pyridin-3-yl)-2-fluoro-N-(6-(2-methylthiazol-4-yl)isoquinolin-1-yl)-N-(piperidin-3-yl)benzamide], the IC50 was found to be 150 nM.
As to `Cc1nnc(-c2ccc3c(N(C(=O)c4ccc(-n5nnc6cccnc65)cc4F)[C@@H]4CCCNC4)nccc3c2)s1` [Example 576, (R)-4-(3H-[1,2,3]triazolo[4,5-b]pyridin-3-yl)-2-fluoro-N-(6-(5-methyl-1,3,4-thiadiazol-2-yl)isoquinolin-1-yl)-N-(piperidin-3-yl)benzamide], the IC50 was found to be 430 nM.
On the same count and under the same terms, then `Cc1cccc2ccnc(N(C(=O)c3ccc(Nc4nccc(N5CCCCC5)n4)cc3F)[C@@H]3CCCNC3)c12` [Example 578, (R)-2-fluoro-N-(8-methylisoquinolin-1-yl)-4-((4-(piperidin-1-yl)pyrimidin-2-yl)amino)-N-(piperidin-3-yl)benzamide], with 45 nM.
For the molecule `Cn1cc(-c2ccc(C(=O)N(c3nccc4cc(-c5ccc(F)cc5)ccc34)[C@@H]3CCCNC3)c(F)c2)nn1` [Example 580, (R)-2-fluoro-N-(6-(4-fluorophenyl)isoquinolin-1-yl)-4-(1-methyl-1H-1,2,3-triazol-4-yl)-N-(piperidin-3-yl)benzamide], the IC50 was found to be 430 nM.
With `Cn1cc(-c2ccc(C(=O)N(c3nccc4cc(-c5ccccn5)ccc34)[C@@H]3CCCNC3)c(F)c2)nn1` [Example 581, (R)-2-fluoro-4-(1-methyl-1H-1,2,3-triazol-4-yl)-N-(piperidin-3-yl)-N-(6-(pyridin-2-yl)isoquinolin-1-yl)benzamide], the IC50 came to 340 nM.
For `Cn1cc(-c2ccc(C(=O)N(c3nccc4cc(-c5ccc(S(C)(=O)=O)cc5)ccc34)[C@@H]3CCCNC3)c(F)c2)nn1` [Example 582, (R)-2-fluoro-4-(1-methyl-1H-1,2,3-triazol-4-yl)-N-(6-(4-(methylsulfonyl)phenyl)isoquinolin-1-yl)-N-(piperidin-3-yl)benzamide], the IC50 stood at 220 nM.
Take `Cc1cc(F)cc2ccnc(N(C(=O)c3ccc(-n4nnc5cccnc54)cc3F)[C@@H]3CCCNC3)c12` [Example 583, (R)-4-(3H-[1,2,3]triazolo[4,5-b]pyridin-3-yl)-2-fluoro-N-(6-fluoro-8-methylisoquinolin-1-yl)-N-(piperidin-3-yl)benzamide]: the IC50 came out at 4.2 nM.
The same measure, in the same setting: then `CC(C)(O)c1ccc(-c2cc3c(N(C(=O)c4ccc(-n5nnc6cccnc65)cc4F)[C@@H]4CCCNC4)nccc3s2)cc1` [Example 585, (R)-4-(3H-[1,2,3]triazolo[4,5-b]pyridin-3-yl)-2-fluoro-N-(2-(4-(2-hydroxypropan-2-yl)phenyl)thieno[3,2-c]pyridin-4-yl)-N-(piperidin-3-yl)benzamide], with 440 nM; and `CC(C)(O)C#Cc1ccc2c(N(C(=O)c3ccc(-n4nnc5cccnc54)cc3F)[C@@H]3CCCNC3)nccc2c1` [Example 586, (R)-4-(3H-[1,2,3]triazolo[4,5-b]pyridin-3-yl)-2-fluoro-N-(6-(3-hydroxy-3-methylbut-1-yn-1-yl)isoquinolin-1-yl)-N-(piperidin-3-yl)benzamide], with 310 nM.
On the same count and under the same terms, then `Cc1cc(C#CC(C)(C)O)cc2ccnc(N(C(=O)c3ccc(-n4nnc5cccnc54)cc3F)[C@@H]3CCCNC3)c12` [Example 587, (R)-4-(3H-[1,2,3]triazolo[4,5-b]pyridin-3-yl)-2-fluoro-N-(6-(3-hydroxy-3-methylbut-1-yn-1-yl)-8-methylisoquinolin-1-yl)-N-(piperidin-3-yl)benzamide], with 14 nM.
Turning to `Cc1cccc2ccnc(N(C(=O)c3cccc(C#CCCN4C(=O)c5ccccc5C4=O)c3)[C@@H]3CCCNC3)c12` [Example 588, (R)-3-(4-(1,3-dioxoisoindolin-2-yl)but-1-yn-1-yl)-N-(8-methylisoquinolin-1-yl)-N-(piperidin-3-yl)benzamide], the IC50 was 790 nM.
As for `COC(=O)CCC#Cc1cccc(C(=O)N(c2nccc3cccc(C)c23)[C@@H]2CCCNC2)c1` [Example 589, methyl (R)-5-(3-((8-methylisoquinolin-1-yl)(piperidin-3-yl)carbamoyl)phenyl)pent-4-ynoate], the IC50 was 1000 nM.
For `Cc1cccc2ccnc(N(C(=O)c3cccc(C#CCCC(=O)O)c3)[C@@H]3CCCNC3)c12` [Example 590, (R)-5-(3-((8-methylisoquinolin-1-yl)(piperidin-3-yl)carbamoyl)phenyl)pent-4-ynoic acid], the IC50 was > 10000 nM.
On the same count and under the same terms, the value for `O=C(c1ccc(Nc2ncccn2)cc1F)N(c1nccc2cc(F)ccc12)[C@@H]1CCCNC1` [Example 591, (R)-2-fluoro-N-(6-fluoroisoquinolin-1-yl)-N-(piperidin-3-yl)-4-(pyrimidin-2-ylamino)benzamide] was > 2000 nM; that for `Cc1nnc(-c2ccc(C(=O)N(c3nccc4sc(-c5ccncc5)cc34)[C@@H]3CCCNC3)c(F)c2)s1` [Example 593, 2-fluoro-4-(5-methyl-1,3,4-thiadiazol-2-yl)-N-[(3R)-3-piperidyl]-N-[2-(4-pyridyl)thieno[3,2-c]pyridin-4-yl]benzamide] was 780 nM.
Still for that read-out and setting: then `CC(C)(Oc1cccc(-c2cc3c(N(C(=O)c4ccc(-n5nnc6cccnc65)cc4F)[C@@H]4CCCNC4)nccc3s2)c1)C(N)=O` [Example 594], with 190 nM; and `Cn1cc(-c2ccc(C(=O)N(c3nccc4sc(-c5ccc(C(C)(C)C(N)=O)cc5)cc34)[C@@H]3CCCNC3)c(F)c2)nn1` [Example 595], with 470 nM.
On to `Cn1cc(-c2ccc(C(=O)N(c3nccc4sc(-c5ccc(-c6cn[nH]c6)cc5)cc34)[C@@H]3CCCNC3)c(F)c2)nn1` [Example 597], for which the IC50 came to 190 nM.
Still for that read-out and setting: then `O=C(c1ccc(-n2nnc3cccnc32)cc1F)N(c1nccc2sc(-c3ccc(CO)cc3)cc12)[C@@H]1CCCNC1` [Example 599, (R)-4-(3H-[1,2,3]triazolo[4,5-b]pyridin-3-yl)-2-fluoro-N-(2-(4-(hydroxymethyl)phenyl)thieno[3,2-c]pyridin-4-yl)-N-(piperidin-3-yl)benzamide], with 240 nM; and `CC(O)c1ccc(-c2cc3c(N(C(=O)c4ccc(-n5nnc6cccnc65)cc4F)[C@@H]4CCCNC4)nccc3s2)cc1` (stereo partly drawn) [Example 600, 4-(3H-[1,2,3]triazolo[4,5-b]pyridin-3-yl)-2-fluoro-N-(2-(4-(1-hydroxyethyl)phenyl)thieno[3,2-c]pyridin-4-yl)-N—((R)-piperidin-3-yl)benzamide], with 270 nM; and `CC(O)c1cccc(-c2cc3c(N(C(=O)c4ccc(-n5nnc6cccnc65)cc4F)[C@@H]4CCCNC4)nccc3s2)c1` (stereo partly drawn) [Example 601, 4-(3H-[1,2,3]triazolo[4,5-b]pyridin-3-yl)-2-fluoro-N-(2-(3-(1-hydroxyethyl)phenyl)thieno[3,2-c]pyridin-4-yl)-N—((R)-piperidin-3-yl)benzamide], with 200 nM.
On to `CC(C)(O)c1cccc(-c2cc3c(N(C(=O)c4ccc(-n5nnc6cccnc65)cc4F)[C@@H]4CCCNC4)nccc3s2)c1` [Example 602, (R)-4-(3H-[1,2,3]triazolo[4,5-b]pyridin-3-yl)-2-fluoro-N-(2-(3-(2-hydroxypropan-2-yl)phenyl)thieno[3,2-c]pyridin-4-yl)-N-(piperidin-3-yl)benzamide], for which the IC50 was 460 nM.
In the case of `CC(=O)c1ccc(-c2cc3c(N(C(=O)c4ccc(-n5nnc6cccnc65)cc4F)[C@@H]4CCCNC4)nccc3s2)cc1` [Example 603, N-[2-(4-acetylphenyl)thieno[3,2-c]pyridin-4-yl]-2-fluoro-N-[(3R)-3-piperidyl]-4-(triazolo[4,5-b]pyridin-3-yl) benzamide], the IC50 was determined as 240 nM.
For the molecule `Cn1cc(-c2ccc(C(=O)N(c3nccc4sc(-c5ccc(C(O)(C(F)(F)F)C(F)(F)F)cc5)cc34)[C@@H]3CCCNC3)c(F)c2)nn1` [Example 604, (R)-2-fluoro-N-(2-(4-(1,1,1,3,3,3-hexafluoro-2-hydroxypropan-2-yl)phenyl)thieno[3,2-c]pyridin-4-yl)-4-(1-methyl-1H-1,2,3-triazol-4-yl)-N-(piperidin-3-yl)benzamide], the IC50 turned out to be 2100 nM.
Take `Cn1cc(-c2ccc(C(=O)N(c3nccc4sc(-c5ccc(C(O)C(F)(F)F)cc5)cc34)[C@@H]3CCCNC3)c(F)c2)nn1` (stereo partly drawn) [Example 605, 2-fluoro-4-(1-methyl-1H-1,2,3-triazol-4-yl)-N—((R)-piperidin-3-yl)-N-(2-(4-(2,2,2-trifluoro-1-hydroxyethyl)phenyl)thieno[3,2-c]pyridin-4-yl)benzamide]: the IC50 is 470 nM.

The assay is the same for the next values; noted with them: MV-4-11 cells, 72 h, Cell-Titer Glo; read-out: IC50.
`Cn1cc(-c2ccc(C(=O)N(c3nccc4cc(-c5ccccc5)ccc34)[C@@H]3CCCNC3)c(F)c2)nn1` [Example 577, (R)-2-fluoro-4-(1-methyl-1H-1,2,3-triazol-4-yl)-N-(6-phenylisoquinolin-1-yl)-N-(piperidin-3-yl)benzamide]: the IC50 came out at 76 nM.
For `Cn1cc(-c2ccc(C(=O)N(c3nccc4cc(-c5ccccc5)ccc34)[C@@H]3CCCNC3)c(F)c2)nn1` [Example 579, (R)-2-fluoro-4-(1-methyl-1H-1,2,3-triazol-4-yl)-N-(6-phenylisoquinolin-1-yl)-N-(piperidin-3-yl)benzamide], the IC50 was found to be 220 nM.
